For data set [1], the system named is leukemia cell lines (CCRF-CEM, REH, JURKAT, MOLT-4, THP-1). Put plainly: Cell viability assay, all leukemia cell lines tested (summary statements). It counts as cell-based. The settings on record: 48 h; summary over CCRF-CEM, REH, JURKAT, MOLT-4, THP-1. As to the method: (§1) Cell lines were cultured in RPMI 1640 medium (Roswell Park Memorial Institute medium) supplemented with 10% fetal bovine serum (FBS) and 1% penicillin–streptomycin. Cultures were maintained at 37 °C in a humidified incubator with 5% CO2. All biological evaluations were performed using cell between passages 3 and 4. All compounds were dissolved in dimethyl sulfoxide (DMSO) at a concentration of 20 mg/mL. In all assays, culture medium containing 0.1% DMSO was used as the negative control, while dasatinib was included as the positive control. Normal mononuclear cells (MNCs) were included as the normal cell control. All experiments were performed in triplicate. Leukemic cell lines and normal mononuclear cells (MNCs) were used to evaluate the cytotoxicity of the compounds. Leukemic cells (1 × 10^5 cells/well) were cultured in 96-well plates and treated with increasing concentrations of compounds (0.02, 0.2, 2.0, and 20 µM) for 48 h. After incubation, both leukemic cells and MNCs were collected, washed with phosphate-buffered saline (PBS), and stained with DAPI (500 ng/mL) for 15 min in darkness, following the manufacturer’s instructions. Fluorescence was analyzed using a FACSVerse flow cytometer (BD Bioscience, San Jose, CA, USA). Flow cytometry data were analyzed using FlowJo^TM software (version 10.9). […] All experiments were performed in triplicate, and results were expressed as means ± standard errors of the means (SEMs). Statical analysis was performed using one-way analysis of variance (ANOVA), followed by Dunnett’s post hoc test to compare treated groups against the control.

The subject of data set [2] is peripheral blood mononuclear cells (MNCs). Put plainly: Cell viability assay in normal mononuclear cells. The class given is cell-based, human. As to the method:
(§2) All compounds were dissolved in dimethyl sulfoxide (DMSO) at a concentration of 20 mg/mL. In all assays, culture medium containing 0.1% DMSO was used as the negative control, while dasatinib was included as the positive control. Normal mononuclear cells (MNCs) were included as the normal cell control. All experiments were performed in triplicate. Normal mononuclear cells (MNCs) were isolated from peripheral blood mononuclear cells obtained from healthy human donors. Cell collection was conducted in accordance with institutional guidelines, including written informed consent from each participant. All procedures were approved by Ethics and Scientific Committee of the Mexican Institute of Social Security (IMSS, ethical approval number: CNIC R-2021-785-025). The MNCs were purified using FicollPaque Plus (Pharmacia Biotech, Uppsala, Sweden) by centrifugation at 400× g for 30 min at room temperature, following the manufacturer’s protocol. The resulting cells were resuspended in RPMI-1640 medium supplemented with 10% fetal bovine serum (FBS) and counted using a hemocytometer after trypan blue staining, confirming a viability of 95% [56]. […] After incubation, both leukemic cells and MNCs were collected, washed with phosphate-buffered saline (PBS), and stained with DAPI (500 ng/mL) for 15 min in darkness, following the manufacturer’s instructions. Fluorescence was analyzed using a FACSVerse flow cytometer (BD Bioscience, San Jose, CA, USA). Flow cytometry data were analyzed using FlowJo^TM software (version 10.9). […] All experiments were performed in triplicate, and results were expressed as means ± standard errors of the means (SEMs). Statical analysis was performed using one-way analysis of variance (ANOVA), followed by Dunnett’s post hoc test to compare treated groups against the control.

A further data set deals with REH. The data set is described as follows: Cell viability assay (DAPI, flow cytometry), REH. It counts as cell-based. The following applies: for IC50: Homo sapiens, REH, 48 h, mean ± SEM, N/A: not active. As to the method:
as §1
A general note: A flow cytometer gives signals particle by particle.

A further data set relates to K562 cells. Also on record: method as in PMID 36080390. The settings on record: cited from earlier work.
The subject of a further data set is JURKAT. The data set is described as follows: Cell viability assay (DAPI, flow cytometry), JURKAT. The following applies: for IC50: Homo sapiens, Jurkat, 48 h, mean ± SEM, N/A: not active. The class given is cell-based. As to the method:
as §1

Another data set concerns CCRF-CEM. The data set is described as follows: Cell viability assay (DAPI, flow cytometry), CCRF-CEM. The class given is cell-based. The following applies: for IC50: Homo sapiens, CCRF-CEM, 48 h, mean ± SEM, N/A: not active. How it is done: as §1
Data set [3] in a line: Cell viability assay in normal mononuclear cells. The following applies: human. It counts as cell-based, human. As to the method:
as §2

Another data set has as its system HL-60 cells. Also on record: method as in PMID 36080390. The settings on record: cited from earlier work.
The subject of another data set is MOLT-4 cell line. The data set is described as follows: Apoptosis assay (annexin V-FITC/DAPI flow cytometry), MOLT-4. It counts as cell-based. The following applies: MOLT-4, positive control (dasatinib), 48 h. How it is done:
(§3) Since compound T1c was the only derivative that decreased the cell viability of leukemic cells (IC50 ≤ 20 µΜ), without affecting viability in normal MNC cells, its mode of action to exert cytotoxic effects was evaluated by flow cytometry techniques, determining the apoptotic effect at 48 h, using ½ IC50 and IC50 concentrations obtained in the viability assay in the different leukemia cell lines. Dasatinib at different concentrations was included as a positive control. Cell death was quantified by dual staining with annexin V-FITC and DAPI. Annexin V binds to externalized phosphatidylserine residues during early and late apoptosis, whereas DAPI penetrates membrane-compromised cells, distinguishing between late apoptotic and necrotic cells. The total percentage of apoptotic cells was calculated as the sum of early and late apoptotic populations. The results were normalized to 100% with respect to the negative control.
(§4) Apoptosis induction was evaluated by flow cytometry. Cells (1 × 10^5 cells/well) were cultured in 96-well plates and exposed to the compounds at two concentrations (½ and 1 × IC50). After 48 h of treatment, the cells were washed with phosphate-buffered saline (PBS) and stained with annexin V-FITC (BD Bioscience) for 15 min in the dark. Following a second PBS wash, the cells were stained with DAPI (500 ng/mL) for 15 min in darkness. The stained samples were subsequently analyzed on a FACSVerse cytometer (BD Bioscience, San Jose, CA, USA).

For the next data set, the system named is THP-1 cell line. The data set is described as follows: Apoptosis assay (annexin V-FITC/DAPI flow cytometry), THP-1. It counts as cell-based. The settings on record: THP-1, positive control (dasatinib), 48 h. How it is done:
as §3, §4

In another data set the test system is MOLT-4. The data set is described as follows: Cell viability assay (DAPI, flow cytometry), MOLT-4. The class given is cell-based. The following applies: Homo sapiens, MOLT-4; 48 h; mean ± SEM; N/A: not active. How it is done: as §1
For another data set, the system named is JURKAT cell line. The data set is described as follows: Apoptosis assay (annexin V-FITC/DAPI flow cytometry), JURKAT. The settings on record: positive control (dasatinib), 48 h. It counts as cell-based. How it is done:
as §3, §4

In another data set the test system is THP-1. Put plainly: Cell viability assay (DAPI, flow cytometry), THP-1. It counts as cell-based. The following applies: Homo sapiens, THP-1; 48 h; mean ± SEM; N/A: not active. As to the method:
as §1

The mark [4] stands for this setting: ratio of IC50 in the MNC line over IC50 in the leukemia cell line.

Where two headings read alike, the source gives them in different places.

As for `C=C(CO)C1CCC2(C(=O)O)CCC3(C)C(CCC4C5(C)CCC(O)C(C)(CO)C5CCC43C)C12` (stereo not drawn) [Compound T1d, 3α,24,30-trihydroxylup-20(29)-en-28-oic acid], the “IC50 across all leukemia cell lines tested” value in data set [1] is recorded as “no activity”. Also, in data set [2], the “IC50 MNCs” value was “no activity”.

Regarding `C=C(C)C1CCC2(C(=O)O)CCC3(C)C(CCC4C5(C)CCC(OC(C)=O)C(C)(CO)C5CCC43C)C12` (stereo not drawn) [Compound T1e, 3α-acetyl-24-hydroxylup-20(29)-en-28-oic acid], in [1], the “IC50 across all leukemia cell lines tested” value is on record as “no activity”. Also, the “IC50 MNCs” value in data set [2] is given as “no activity”.

As for `C=C(C=O)[C@@H]1CC[C@]2(C(=O)O)CC[C@]3(C)C(CCC4[C@@]5(C)CC[C@@H](O)[C@@](C)(CO)C5CC[C@]43C)C12` (stereo partly drawn) [Compound T2, 3α,23-dihydroxy-30-oxolup-20(29)-en-28-oic acid], the 50% inhibitory concentration (IC50) in the data set on REH, with JURKAT and in the data set on CCRF-CEM was greater than 20 µM in each case. Also, the “SI: selectivity index, REH” value in the data set on REH (setting [4]) was found to be 11.40. The values for the K562 cell viability in the data set on K562 cells (at 102 µM) and in the data set with K562 cells (at 204 µM) were 88.6 ± 0.40% and 24.3 ± 1.95%, respectively. In the data set on JURKAT (setting [4]), the “SI: selectivity index, JURKAT” value amounted to 8.56. Also, in the data set with CCRF-CEM (setting [4]), the “SI: selectivity index, CCRF-CEM” value is recorded as 19.48. For the same compound, the half-inhibitory concentration (IC50) – broadly, the point on the concentration scale where inhibition reaches its midpoint – at 48 h in data set [3] is greater than 200 µM. For the same compound, the results for the HL-60 cell viability with HL-60 cells (at 102 µM) and with HL-60 cells (at 204 µM) were 88.35 ± 3.85% and 85.15 ± 3.05%, respectively.

Consider `Cc1nc(Nc2ncc(C(=O)Nc3c(C)cccc3Cl)s2)cc(N2CCN(CCO)CC2)n1` [Dasatinib, dasatinib, reference compound], for which the IC50 in the data set with REH amounted to 5.43 ± 0.3 µM; in the data set with MOLT-4, 2.63 ± 0.1 µM; in the data set with THP-1, 4.66 ± 0.3 µM; in the data set on JURKAT, 5.26 ± 0.5 µM; with CCRF-CEM it was 10.8 ± 1.2 µM. Besides, the early apoptotic cells in the data set with MOLT-4 cell line is reported as 1.40%; in the data set on THP-1 cell line, 7.21%; in the data set with JURKAT cell line, 0.59%. Further, the late apoptotic cells is 94.74% in the data set on MOLT-4 cell line, 24.93% in the data set with THP-1 cell line and 96.60% in the data set with JURKAT cell line. For the same compound, the “apoptosis rate (early + late)” value stood at 96.13 ± 0.71% in the data set with MOLT-4 cell line (normalized to negative control), 32.14 ± 3.15% in the data set on THP-1 cell line and 97.19 ± 0.11% in the data set with JURKAT cell line.

The values above are taken from publication PMC12348585, “Semi-Synthesis, Anti-Leukemia Activity, and Docking Study of Derivatives from 3α,24-Dihydroxylup-20(29)-en-28-Oic Acid” (Molecules, 2025).
